Reference: patent US11267824B2, “Inhibitors of indoleamine 2,3-dioxygenase and/or tryptophan 2,3-dioxygenase” (IDORSIA PHARMACEUTICALS LTD, priority 2017, dated 2022)

Columns and labels:
[1] = molecular target: Recombinant full-length human IDO1 (Homo sapiens (Human), UniProt P14902); experiment: IDO1 enzymatic assay (IDO inhibitory activity); type: biochemical; details: 2 nM enzyme, 5 μM L-tryptophan, pH6.5, 30 min pre-incubation, NFK quantified by LCMS; mean values if measured multiple times; read-out: hIDO activity (IC50 in nM)
Protocol: 1) Testing Compounds for IDO Inhibitory Activity in an IDO1 Enzymatic Assay:
Recombinant full-length human IDO1 with a N-terminal hexahistidine tag expressed in E. coli and purified to homogeneity is incubated at a final concentration of 2 nM in assay buffer consisting of 37.5 mM phosphate buffer at pH6.5 supplemented with 10 mM sodium L-ascorbate, 0.45 μM methylene blue, 50 U/ml catalase, 0.01% BSA, and 0.01% Tween 20 (protocol modified from Seegers et al, JBS 2014). Example compounds are serially diluted in DMSO, further diluted in phosphate buffer, and added to the enzyme at final concentrations ranging from 10 μM to 0.5 nM. The final DMSO concentration is 0.6%. Following a pre-incubation of 30 minutes at RT, the reaction is started by the addition of L-tryptophan at a final concentration of 5 μM in assay buffer. After 30 minutes of incubation at RT, 3 μL of the reaction mixture are transferred to a 384 deep well plate containing 25 μL of deionized water. 100 μl of 200 nM L-Tryptophan-(indole-d5) in cold 100% methanol are added followed by a 10 minutes centrifugation at 4,000 rpm at 4° C. An additional 75 μL of deionized water are then added and followed by a 10 minutes centrifugation at 4,000 rpm at 4° C. The product of the reaction N′-Formylkynurenine (NFK) is quantified by LCMS and normalized to the L-Tryptophan-(indole-d5) signal. Samples with 0.6% DMSO (0% effect) and a TDO/IDO inhibitor (100% effect) are used as control samples to set the parameters for the non-linear regression necessary for the determination of the half-maximal inhibitory concentration (IC50) for each compound. For each compound concentration the percentage of activity compared to 0% and 100% effect is calculated as average ±STDEV (each concentration measured in duplicate). IC50 values and curves are generated with XLfit software (IDBS) using Dose-Response One Site model 203 (four parameter logistic curve model). When compounds are measured multiple times, mean values are given.

[2] = molecular target: Recombinant human TDO comprising amino acids 19-407 (Homo sapiens (Human), UniProt P48775); experiment: TDO2 enzymatic assay (TDO inhibitory activity); type: biochemical; details: 15 nM enzyme, 200 μM L-tryptophan, pH7, 30 min pre-incubation, NFK quantified by LCMS; mean values if measured multiple times; read-out: hTDO activity (IC50 in nM)
Protocol: 2) Testing Compounds for TDO Inhibitory Activity in a TDO2 Enzymatic Assay:
Recombinant human TDO comprising amino acids 19-407 with a N-terminal hexahistidine tag expressed in E. coli and purified to homogeneity is incubated at a final concentration of 15 nM in assay buffer consisting of 75 mM phosphate buffer at pH7 supplemented with 100 μM ascorbic acid, 50 U/ml Catalase, 0.01% BSA, and 0.01% Tween 20 (protocol modified from Seegers et al, JBS 2014). Example compounds are serially diluted in DMSO, further diluted in phosphate buffer, and added to the reaction mixture at final concentrations ranging from 10 μM to 0.5 nM. The final DMSO concentration is 0.6%. Following a pre-incubation of 30 minutes at RT, the reaction is started by the addition of L-tryptophan at a final concentration of 200 μM in assay buffer. After 30 minutes of incubation at RT, 3 μL of the reaction mixture are transferred to a 384 deep well plate containing 25 μL of deionized water. 100 μl of 200 nM L-Tryptophan-(indole-d5) in cold 100% methanol are added followed by a 10 minutes centrifugation at 4,000 rpm at 4° C. An additional 75 μL of deionized water are then added and followed by a 10 minutes centrifugation at 4,000 rpm at 4° C. The product of the reaction N′-Formylkynurenine (NFK) is quantified by LCMS and normalized to the L-Tryptophan-(indole-d5) signal. Samples with 0.6% DMSO (0% effect) and a TDO/IDO inhibitor (100% effect) are used as control samples to set the parameters for the non-linear regression necessary for the determination of the half-maximal inhibitory concentration (IC50) for each compound. For each compound concentration the percentage of activity compared to 0% and 100% effect is calculated as average±STDEV (each concentration measured in duplicate). IC50 values and curves are generated with XLfit software (IDBS) using Dose-Response One Site model 203 (four parameter logistic curve model). When compounds are measured multiple times, mean values are given.

Recombinant full-length human IDO1, sequence (P14902 whole entry): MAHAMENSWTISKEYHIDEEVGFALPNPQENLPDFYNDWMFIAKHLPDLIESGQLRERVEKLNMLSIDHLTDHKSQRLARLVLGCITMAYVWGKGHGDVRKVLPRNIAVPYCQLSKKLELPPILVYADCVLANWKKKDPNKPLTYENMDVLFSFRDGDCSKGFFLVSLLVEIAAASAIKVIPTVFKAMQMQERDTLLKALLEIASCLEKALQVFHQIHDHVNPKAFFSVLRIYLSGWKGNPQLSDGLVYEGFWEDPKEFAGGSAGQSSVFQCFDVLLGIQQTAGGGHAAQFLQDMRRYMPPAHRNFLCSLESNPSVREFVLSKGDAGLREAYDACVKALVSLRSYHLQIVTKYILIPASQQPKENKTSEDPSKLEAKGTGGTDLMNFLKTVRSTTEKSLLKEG
Recombinant human TDO comprising amino acids 19-407, sequence (P48775 19-406 limits assumed): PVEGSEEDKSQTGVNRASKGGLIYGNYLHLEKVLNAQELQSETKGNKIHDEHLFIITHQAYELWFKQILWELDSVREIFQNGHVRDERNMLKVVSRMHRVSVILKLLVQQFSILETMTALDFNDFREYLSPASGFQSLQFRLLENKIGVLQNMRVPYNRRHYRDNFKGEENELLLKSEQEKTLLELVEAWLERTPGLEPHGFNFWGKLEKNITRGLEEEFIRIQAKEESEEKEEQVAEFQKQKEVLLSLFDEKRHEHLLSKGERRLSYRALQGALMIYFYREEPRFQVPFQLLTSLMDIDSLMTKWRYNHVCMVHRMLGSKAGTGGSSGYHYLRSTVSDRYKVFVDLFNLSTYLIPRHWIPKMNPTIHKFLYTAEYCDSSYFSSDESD

Work on `CCc1sc2cncn2c1C(O)CC1CCC(C)(C)CC1` (racemic) [Example 178, rac-2-(4,4-Dimethyl-cyclohexyl)-1-(2-ethyl-imidazo[5,1-b]thiazol-3-yl)-ethanol] yielded an IC50 [1] of 118 nM and an IC50 [2] of 1290 nM.

Compound `CC1CCCC(CC(O)c2c(C(F)(F)F)sc3cncn23)C1` (stereo not shown) [Example 122, 2-(3-Methyl-cyclohexyl)-1-(2-trifluoromethyl-imidazo[5,1-b]thiazol-3-yl)-ethanol] has an IC50 [1] of 205 nM and an IC50 [2] of 3810 nM.

Compound `CCc1cccc(C(O)c2c(C3CC3)sc3cncn23)c1` (racemic) [Example 54, rac-(2-Cyclopropyl-imidazo[5,1-b]thiazol-3-yl)-(3-ethyl-phenyl)-methanol] has an IC50 [1] of 120 nM and an IC50 [2] of 1850 nM.

With `CC(C)n1cc(C(O)c2c(C3CC3)sc3cncn23)nn1` (racemic) [Example 194, rac-(2-Cyclopropyl-imidazo[5,1-b]thiazol-3-yl)-(1-isopropyl-1H-[1,2,3]triazol-4-yl)-methanol] the IC50 [1] was 304 nM and the IC50 [2] was over 10200 nM.

`OC(CC1CCC(c2ccccc2)CC1)c1c(C2CC2)sc2cncn12` (racemic) [Example 37, rac-1-(2-Cyclopropyl-imidazo[5,1-b]thiazol-3-yl)-2-(4-phenyl-cyclohexyl)-ethanol] was tested, and the IC50 [1] was 353 nM and the IC50 [2] was 2460 nM.

With `CC1(C)CCC(CC(O)c2c(C(F)(F)F)sc3cncn23)CC1` (racemic) [Example 118, rac-2-(4,4-Dimethyl-cyclohexyl)-1-(2-trifluoromethyl-imidazo[5,1-b]thiazol-3-yl)-ethanol] the IC50 [1] was 447 nM and the IC50 [2] was 7280 nM.

In the case of `OC(c1c(C2CC2)sc2cncn12)C1CCCC1c1ccccc1` (stereo not shown) [Example 83, (2-Cyclopropyl-imidazo[5,1-b]thiazol-3-yl)-(2-phenyl-cyclopentyl)-methanol], the IC50 [1] is reported as 296 nM and the IC50 [2] is reported as 5200 nM.

`CC1(c2sc3cncn3c2C(O)C2CCCCC2)CC1` (racemic) [Example 170, rac-Cyclohexyl-[2-(1-methyl-cyclopropyl)-imidazo[5,1-b]thiazol-3-yl]-methanol] gave an IC50 [1] of 415 nM and an IC50 [2] of 2260 nM.

In the case of `CCNC1CCC(CC(O)c2c(C3CC3)sc3cncn23)CC1` (racemic) [Example 160, rac-1-(2-Cyclopropyl-imidazo[5,1-b]thiazol-3-yl)-2-(4-ethylamino-cyclohexyl)-ethanol], the IC50 [1] is reported as 2370 nM and the IC50 [2] is reported as over 10200 nM.

Work on `O[C@H](c1c(C2CC2)sc2cncn12)[C@H]1CC[C@H](c2ccccc2)CC1` [Example 73a, (S)-(2-Cyclopropyl-imidazo[5,1-b]thiazol-3-yl)-(trans-4-phenyl-cyclohexyl)-methanol] yielded an IC50 [1] of 6.45 nM and an IC50 [2] of 2300 nM.

For `Cc1sc2cncn2c1[C@@H](O)C1(C)CCCC1` [Example 140a, (S)-(1-Methyl-cyclopentyl)-(2-methyl-imidazo[5,1-b]thiazol-3-yl)-methanol], the IC50 [1] was 23.9 nM and the IC50 [2] was 15.8 nM.

With `O[C@H](c1c(C2CCCC2)sc2cncn12)C1CCCCC1` [Example 9a, (S)-Cyclohexyl(2-cyclopentylimidazo[5,1-b]thiazol-3-yl)methanol] the IC50 [1] was 131 nM and the IC50 [2] was 131 nM.

For `COCc1sc2cncn2c1C(O)C1CCCCC1` (racemic) [Example 157, rac-Cyclohexyl-(2-methoxymethyl-imidazo[5,1-b]thiazol-3-yl)-methanol], the IC50 [1] was 744 nM and the IC50 [2] was 327 nM.

For `Cc1sc2cncn2c1C(O)c1cn(C2CCCC2)nn1` (racemic) [Example 199, rac-(1-Cyclopentyl-1H-[1,2,3]triazol-4-yl)-(2-methyl-imidazo[5,1-b]thiazol-3-yl)-methanol], the IC50 [1] was 835 nM and the IC50 [2] was over 10200 nM.

`CCc1sc2cncn2c1[C@H](O)CC1CCCCC1` [Example 100b, (R)-2-Cyclohexyl-1-(2-ethyl-imidazo[5,1-b]thiazol-3-yl)-ethanol] gave an IC50 [1] of 1190 nM and an IC50 [2] of 9950 nM.

`OC(c1c[nH]nn1)c1c(C2CC2)sc2cncn12` (racemic) [Example 200, rac-(2-Cyclopropyl-imidazo[5,1-b]thiazol-3-yl)-(1H-[1,2,3]triazol-4-yl)-methanol] was tested, and the IC50 [1] was 1950 nM and the IC50 [2] was over 10200 nM.

`C=Cc1sc2cncn2c1[C@@H](O)C1CCCCC1` [Example 68a, (S)-Cyclohexyl-(2-vinyl-imidazo[5,1-b]thiazol-3-yl)-methanol] gave an IC50 [1] of 4.63 nM and an IC50 [2] of 11.6 nM.

With `CC1(C)CC(C(O)c2c(C(F)(F)F)sc3cncn23)C1` (racemic) [Example 110, rac-(3,3-Dimethyl-cyclobutyl)-(2-trifluoromethyl-imidazo[5,1-b]thiazol-3-yl)-methanol] the IC50 [1] was 9.81 nM and the IC50 [2] was 912 nM.

For `OC(c1c(C(F)(F)F)sc2cncn12)C1CCCC1` (racemic) [Example 132, rac-Cyclopentyl-(2-trifluoromethyl-imidazo[5,1-b]thiazol-3-yl)-methanol], the IC50 [1] was 44.3 nM and the IC50 [2] was 591 nM.

For `CC1(C)CC[C@@H]([C@H](O)c2c(C3CC3)sc3cncn23)C1` [Example 47a, (S)-(2-Cyclopropyl-imidazo[5,1-b]thiazol-3-yl)-((R)-3,3-dimethyl-cyclopentyl)-methanol], the IC50 [1] was 15 nM and the IC50 [2] was 328 nM.

`CCCC1CCC(CC(O)c2c(C3CC3)sc3cncn23)CC1` (racemic) [Example 150, rac-1-(2-Cyclopropyl-imidazo[5,1-b]thiazol-3-yl)-2-(4-propyl-cyclohexy-etethanol] showed an IC50 [1] of 687 nM and an IC50 [2] of 3230 nM.

`Cc1ccccc1CC(O)c1c(C2CC2)sc2cncn12` (racemic) [Example 61, rac-1-(2-Cyclopropyl-imidazo[5,1-b]thiazol-3-yl)-2-o-tolyl-ethanol] showed an IC50 [1] of 431 nM and an IC50 [2] of 578 nM.

`COc1ccc(-c2sc3cncn3c2C(O)C2CCCCC2)cc1` (racemic) [Example 127, rac-Cyclohexyl-[2-(4-methoxy-phenyl)-imidazo[5,1-b]thiazol-3-yl]-methanol] gave an IC50 [1] of 3090 nM and an IC50 [2] of 1990 nM.

`CC(C)c1sc2cncn2c1[C@@H](O)CC1CCCCC1` [Example 4a, (S)-2-Cyclohexyl-1-(2-isopropyl-imidazo[5,1-b]thiazol-3-yl)-ethanol] gave an IC50 [1] of 15.5 nM and an IC50 [2] of 386 nM.

`OC(c1cccc(F)c1)c1c(C2CC2)sc2cncn12` (racemic) [Example 145, rac-(2-Cyclopropyl-imidazo[5,1-b]thiazol-3-yl)-(3-fluoro-phenyl)-methanol] was tested, and the IC50 [1] was 33.1 nM and the IC50 [2] was 449 nM.

Work on `CC1CCC(C(O)c2c(C(F)(F)F)sc3cncn23)CC1` (racemic) [Example 115, rac-(4-Methyl-cyclohexyl)-(2-trifluoromethyl-imidazo[5,1-b]thiazol-3-yl)-methanol] yielded an IC50 [1] of 84.1 nM and an IC50 [2] of 1960 nM.

Work on `OC(CC1CCC1)c1c(C2CC2)sc2cncn12` (racemic) [Example 40, rac-2-Cyclobutyl-1-(2-cyclopropyl-imidazo[5,1-b]thiazol-3-yl)-ethanol] yielded an IC50 [1] of 44.9 nM and an IC50 [2] of 697 nM.

Work on `Cc1cscc1-c1sc2cncn2c1C(O)C1CCCCC1` (racemic) [Example 128, rac-Cyclohexyl-[2-(4-methyl-thiophen-3-yl)-imidazo[5,1-b]thiazol-3-yl]-methanol] yielded an IC50 [2] of 420 nM.
